Read-outs that look alike come from different tables or passages of the source.
Molecular target: T1, human LPA1 (Homo sapiens, UniProt Q92633)
T1 construct: expressed in transfected cells; host or cells: CHO-K1
Experiment: In vitro LPA1 calcium flux antagonist assay - Bioduro protocol
Assay type: cell-based
Conditions: CHO-K1 cells overexpressing human LPA1 and G15a, LPA challenge at EC80
Method: In Vitro LPA1 Calcium Flux Antagonist Assay—Bioduro Protocol
CHO-K1 cells overexpressing human LPA1 and G15a were seeded at a total volume of 20 μL (15000 cells/well) into Matrigel pre-coated 384-well plates (corning −3764) and incubated at 37° C. After overnight incubation, the cells were serum starved for 4 h. Assays were performed in dye loading buffer containing 1× Fluo-8 AM (AAT Bioquest, 21080) and 2.5 mM probenecid (Thermo Fisher, 36400) in HBSS/20 mM Hepes. After cell starvation, the medium was replaced with 20 μL of dye loading buffer and incubated at 37° C., for 30 min. Then 5 μL of 5× compound titrated in dye loading buffer was added to the cells and incubated for 30 min followed by LPA challenge at EC80. Calcium mobilization was measured on a FLIPR Tetra (MSD). For LPA EC80 determination, starved cells were incubated with 20 μL of dye loading buffer for 1 h, then 5 μL of 5×LPA titrated in dye loading buffer was added to the cells. Calcium signals induced by LPA was monitors on a FLIPR.
Percentage inhibition is calculated using the following formula: % Inhibition=100%×(1−(mean RFU of test sample−mean RFU of DMSO)/(mean RFU of LPA control−mean RFU of DMSO)).
Table B3 and Table B4 show the biological activity of compounds in in vitro LPA1 Calcium flux antagonist assay—Bioduro protocol.

[1] = calcium mobilization on FLIPR Tetra, read-out: IC50
[2] = Table B3, read-out: Activity (IC50 class)

T1 sequence (Q92633 whole entry): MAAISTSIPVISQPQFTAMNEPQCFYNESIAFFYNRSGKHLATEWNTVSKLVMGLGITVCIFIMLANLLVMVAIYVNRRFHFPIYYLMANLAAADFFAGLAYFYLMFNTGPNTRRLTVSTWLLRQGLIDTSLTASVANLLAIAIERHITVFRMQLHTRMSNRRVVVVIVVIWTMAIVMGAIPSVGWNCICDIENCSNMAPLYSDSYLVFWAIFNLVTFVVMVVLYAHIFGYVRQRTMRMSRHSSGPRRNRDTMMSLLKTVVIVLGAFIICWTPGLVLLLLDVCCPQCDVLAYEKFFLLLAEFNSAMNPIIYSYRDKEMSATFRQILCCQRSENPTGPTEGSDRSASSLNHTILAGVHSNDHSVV

SMILES	IC50 [1] [nM]	IC50 [2] [nM]
CCOc1cncc(-c2ccc(OC3(C(=O)O)CCOCC3)cc2COC2CC2)c1C(F)F [Compound 415]	66.2	< 100
COc1cc(-c2ccc(NC3(C(=O)O)CCC3)cc2COC2CC2)c(F)c(OC)c1C [Compound 362]	356	100 to 1000
O=C(O)C1(Nc2ccc(-c3cccc(OC4CC4)c3C(F)F)c(COC3CCCC3)c2)CC1 [Compound 301]	12.5	< 100
CCOc1cccc(-c2ccc(OC3(C(=O)O)CCC3)cc2COC2CC2)c1C(F)F [Compound 375]	24.3	< 100
CCOc1nccc(-c2ccc(NC3(C(=O)O)CCOCC3)cc2COC2CC2)c1C(F)F [Compound 338]	17.2	< 100
COc1c(C)ccc(-c2ccc(NC3(C(=O)O)CCOCC3)cc2COC2CCCC2)c1C [Compound 181]	55.2	< 100
O=C(O)C1(Nc2ccc(-c3cccc(OC4CC4)c3)c(COC3CC3)c2)CCOCC1 [Compound 304]	5.64	> 1000
CCOc1cccc(-c2ccc(NC3(C(=O)O)CCOCC3)cc2CCC2CCCC2)c1F [Compound 272]	6.96	< 100
COc1cc(-c2ccc(C3(C(=O)O)CC3)cc2COC2Cc3ccccc3C2)cc(OC)c1C [Compound 118, 1-{2-[(2,3-dihydro-1H-inden-2-yloxy)methyl]-3′,5′-dimethoxy-4′-methyl-[1,1′-biphenyl]-4-yl}cyclopropane-1-carboxylic acid]	96.4	< 100
CCOc1cc(OC)cc(-c2ccc(OC3(C(=O)O)CCOCC3)cc2COC2CCCC2)c1F [Compound 246]	24.3	< 100
CCOc1cccc(-c2ccc(NC3(C(=O)O)CCCC3)cc2COC2CC2)c1C(F)F [Compound 376]	1.03	< 100
CCCCOCc1cc(NC2(C(=O)O)CCOCC2)ccc1-c1cc(OC)c(C)c(OCC)c1F [Compound 400]	5.37	< 100
COc1cc(-c2c(C)cc(NC3(C(=O)O)CCOCC3)cc2CCC2CCOC2)cc(OC)c1C (stereo not drawn) [Compound 308]	23.6	< 100
COc1cc(-c2ccc(NC3(C(=O)O)CCOCC3)cc2COC2CCCC2)c2c(c1C)OCC2 [Compound 193, 4-((3-((cyclopentyloxy)methyl)-4-(6-methoxy-7-methyl-2,3-dihydrobenzofuran-4-yl)phenyl)amino)tetrahydro-2H-pyran-4-carboxylic acid]	31.9	< 100
CCOc1cncc(-c2ccc(NC3(C(=O)O)CCOCC3)c(F)c2COC2CC2)c1C(F)F [Compound 409]	229	100 to 1000
COc1cc(-c2ccc(NCCC(=O)O)cc2OCC2(C)Oc3ccccc3O2)cc(OC)c1C [Compound 115]	6820	> 1000
COc1cc(-c2ccc(NC3(C(=O)O)CCOCC3)cc2COC2Cc3ccccc3C2)cc(OC)c1C(C)O (stereo not drawn) [Compound 135]	27.8	< 100
COc1cc(-c2ccc(NC3(C(=O)O)CCNCC3)cc2COC2CCCC2)cc(OC)c1C [Compound 142]	> 10000	> 1000
CCOc1cc(-c2ccc(OC3(C(=O)O)CCOCC3)cc2COC2CCCC2)cc(OC)c1C [Compound 379]	67.3	< 100
CCOc1c(C)c(OC)cc(-c2ccc(NC3(C(=O)O)CCOCC3)cc2COCC(C)C)c1F [Compound 396]	27.5	< 100
CCCc1nccc(-c2ccc(NC3(C(=O)O)CCOCC3)cc2COC2CC2)c1F [Compound 393]	> 10000	> 1000
CCOc1cccc(-c2ccc(NC3(C(=O)O)CCOCC3)cc2CCC2CC2)c1C(F)F [Compound 296]	2.4	< 100
CCOc1cc(OC)cc(-c2ccc(NC3(C(=O)O)CCOCC3)cc2COC2CC2)n1 [Compound 324]	> 10000	> 1000
COc1cc(-c2ccc(NC3(C(=O)O)C[C@@H](C)O[C@@H](C)C3)cc2COC2CCCC2)c(F)c(OC)c1C (stereo partly drawn) [Compound 225, (2R,6S)-4-((2-((cyclopentyloxy)methyl)-2′-fluoro-3′,5′-dimethoxy-4′-methyl-[1,1′-biphenyl]-4-yl)amino)-2,6-dimethyltetrahydro-2H-pyran-4-carboxylic acid]	320	100 to 1000

SMILES	IC50 [1] [nM]	IC50 [2] [nM]
COc1cc(O)nc(-c2c(C)cc(NC3(C(=O)O)CCOCC3)cc2COC2CCCC2)c1 [Compound 164]	> 10000	> 1000
COc1cc(OC2CC2)cc(-c2ccc(NC3(C(=O)O)CCOCC3)cc2COC2CC2)c1 [Compound 332]	139	< 100
COc1cc(-c2ccc(NC3(C(=O)O)CCC3)cc2COC2Cc3ccccc3C2)cc(OC)c1C [Compound 110, 1-((2-(((2,3-dihydro-1H-inden-2-yl)oxy)methyl)-3′,5′-dimethoxy-4′-methyl-[1,1′-biphenyl]-4-yl)amino)cyclobutane-1-carboxylic acid]	152	100 to 1000
CCCCOCc1cc(NC2(C(=O)O)CCOCC2)ccc1-c1cncc(OCC)c1C(F)F [Compound 404]	13	< 100
COc1cc(-c2ccc(NC3(C(=O)O)CCOCC3)cc2CNC2CCCC2)cc(OC)c1C [Compound 153]	> 10000	> 1000
COc1cc(-c2ccc(NC3(C(=O)O)C[C@@H]3C)cc2COC2Cc3ccccc3C2)cc(OC)c1C (stereo partly drawn) [Compound 119, (2S)-1-((2-(((2,3-dihydro-1H-inden-2-yl)oxy)methyl)-3′,5′-dimethoxy-4′-methyl-[1,1′-biphenyl]-4-yl)amino)-2-methylcyclopropane-1-carboxylic acid]	35.6	< 100
COc1c(C(C)OC)ccc(-c2ccc(NC3(C(=O)O)CCOCC3)cc2COC2CCCC2)c1C (single isomer, unassigned) [Compound 241]	87	100 to 1000
CCOc1cncc(-c2ccc(NC3(C(=O)O)CCOCC3)cc2COC2Cc3ccccc3C2)c1C [Compound 411, 4-({3-[(2,3-dihydro-1H-inden-2-yloxy)methyl]-4-(5-ethoxy-4-methylpyridin-3-yl)phenyl}amino)oxane-4-carboxylic acid]	5.2	< 100
COc1cc(-c2ccc(NC3(C(=O)O)CC(OC)C3)cc2COC2CCCC2)c(C)c(OC)c1C (stereo not drawn) [Compound 196]	30.1	< 100
CCOc1c(C)ccc(-c2ccc(NC3(C(=O)O)CCOCC3)cc2COC2CC2)c1F [Compound 381]	17.5	< 100
COc1cc(-c2ccc(NC3(C(=O)O)CC(F)(F)C3)cc2COC2Cc3ccccc3C2)cc(OC)c1C [Compound 120]	57	< 100
CCOc1cncc(-c2ccc(NC3(C(=O)O)CCOCC3)cc2COC2CC3CC3C2)c1C (stereo not drawn) [Compound 416, 4-{[3-({bicyclo[3.1.0]hexan-3-yloxy}methyl)-4-(5-ethoxy-4-methylpyridin-3-yl)phenyl]amino}oxane-4-carboxylic acid]	8.79	< 100
COc1cc(-c2ccc(NC3(C(=O)O)CCOCC3)cc2COC2CCCC2)c(C(F)F)c(OC)c1C [Compound 215]	10.8	< 100
COc1cc(-c2ccc(NC3(C(=O)O)CCOCC3)cc2COC2CCCC2)c(Cl)c(OC)c1C#N [Compound 262]	30.8	< 100
COc1cc(OC)c(F)c(-c2ccc(NC3(C(=O)O)CCOCC3)cc2COC2CCCC2)c1 [Compound 226]	22.2	< 100
O=C(O)C1(Nc2ccc(-c3cccc(OC4CC4)c3Cl)c(COC3CC3)c2)CCC(F)(F)CC1 [Compound 386]	3.84	< 100
COc1cc(OC)c(Cl)c(-c2c(F)cc(NC3(C(=O)O)CCOCC3)cc2COC2CCCC2)c1 [Compound 174]	29.3	< 100
COc1cc(-c2ccc(NC3(C(=O)O)CCOCC3)cc2COCC2(C#N)CC2)cc(OC)c1C [Compound 151]	1580	> 1000
COc1cc(-c2ccc(OC3(C(=O)O)CCOCC3)cc2COC2CCCC2)c(C)c(OC)c1C [Compound 191]	34.3	< 100
COc1cc(-c2ccc(NC3(C(=O)O)CC(OC)C3)cc2COC2Cc3ccccc3C2)cc(OC)c1C (single isomer, unassigned) [Compound 126]	32.1	< 100
COc1cc(-c2ccc(NC3(C(=O)O)CCOCC3)cc2COC2CC2)c(F)c(OC)c1C#N [Compound 342]	19.7	< 100
CCOc1cccc(-c2ccc(NC3(C(=O)O)CCC(F)(F)CC3)cc2COC2CC2)c1C [Compound 383]	0.847	< 100
CCOc1cccc(-c2ccc(NC3(C(=O)O)CCOCC3)cc2COC2CCCC2)c1F [Compound 245, 4-((2-((cyclopentyloxy)methyl)-3′-ethoxy-2′-fluoro-[1,1′-biphenyl]-4-yl)amino)tetrahydro-2H-pyran-4-carboxylic acid]	23.2	< 100
COc1cc(-c2ccc(NC3(C(=O)O)CCN(C)CC3)cc2COC2CCCC2)cc(OC)c1C [Compound 138]	174	100 to 1000

Source: patent US11884627B2, “Compounds and compositions for treating conditions associated with LPA receptor activity” (Lhotse Bio, Inc., priority 2022, dated 2024)
